Columns and labels:
Daphnia magna = details: chronic/long-term; duration: 21 days; reproduction
Mus musculus = details: oral
Canidae = details: oral, Dog Other, organ weight
Apis mellifera = details: acute; oral; unspecified; mortality
Colinus virginianus = details: acute; oral; mortality
Cyprinus carpio = details: acute; duration: 96 hours; mortality
Tagia sp. = details: acute; duration: 14 days; mortality
Aphidius rhopalosiphi = assay: LR50; higher = less toxic; details: not reported; mortality
[1] = reproduction developmental, reproduction

## CCNC(=O)[C@@H](C)OC(=O)Nc1ccccc1 [Carbetamide]
Daphnia magna
  NOEC: 1 mg/L
Coturnix japonica; acute, oral, diet, mortality
  LC50: > 1040 mg/kg-day
Coturnix japonica; [1]
  NOEC: 169 mg/kg-day
Mus musculus; acute, mortality
  LD50: 1720 mg/kg-day
Mus musculus; chronic, duration: 104 weeks, histopathology: neoplastic
  NOEL: 21 mg/kg-day
Canidae; chronic, duration: 1 years
  NOAEL: 30 mg/kg-day
Canidae; subchronic, duration: 90 days
  NOAEL: 30 mg/kg-day
Oncorhynchus mykiss; acute, duration: 96 hours, mortality
  LC50: > 100 µg/mL
Oncorhynchus mykiss; chronic/long-term, duration: 21 days, growth
  NOEC: > 100 mg/L
Apis mellifera
  LD50: > 63.2 µg/piece
Colinus virginianus
  LD50: > 2000 mg/kg-day
Rattus norvegicus; acute, oral, mortality
  LD50: > 2000 mg/kg-day
Rattus norvegicus; chronic, duration: 2 years, oral, histopathology: nonneoplastic
  NOAEL: 6 mg/kg-day
Rattus norvegicus; [1]
  NOAEL: 208 mg/kg-day
Rattus norvegicus; subchronic, duration: 90 days, oral, histopathology: nonneoplastic
  NOAEL: 12.5 mg/kg-day
Cyprinus carpio
  LC50: > 100 µg/mL
Tagia sp.
  LC50: 660 mg/kg
Aphidius rhopalosiphi
  LR50: > 3020 g/ha

Reference: EPA's ToxValDB 9.5 (doi:10.2903/j.efsa.2010.1913)
